Test results: PubChem BioAssay (NCI)
Where “and” joins values, the source holds several entries; their conditions need not be identical. Equal values may be shown once.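 Tested at 5 concentrations; 48 h exposure; 96-well plates; endpoints linearly interpolated, else capped at highest concentration. Abbreviation: GI50, concentration required for 50% inhibition of growth. TGI: total growth inhibition.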

Tests used:
Assay in all cases: NCI tumour cell line growth inhibition, 48 h
[1] = tested on: MALME-3M melanoma
[2] = tested on: A498 renal
[3] = tested on: OVCAR-8 ovarian
[4] = tested on: SNB-75 CNS
[5] = tested on: SR leukemia
[6] = tested on: SN12C renal
[7] = tested on: HT29 colon
[8] = tested on: NCI-H460 lung
[9] = tested on: RPMI-8226 leukemia
[10] = tested on: HCT-116 colon
[11] = tested on: SF-268 CNS
[12] = tested on: HL-60(TB) leukemia
[13] = tested on: CAKI-1 renal
[14] = tested on: LOX IMVI melanoma
[15] = tested on: M14 melanoma
[16] = tested on: HCT-15 colon
[17] = tested on: BT-549 breast
[18] = tested on: OVCAR-5 ovarian
[19] = tested on: K-562 leukemia
[20] = tested on: 786-0 renal
[21] = tested on: A549 NSCLC
[22] = tested on: UACC-62 melanoma
[23] = tested on: U251 CNS
[24] = tested on: NCI-H522 lung
[25] = tested on: TK-10 renal
[26] = tested on: SW-620 colon
[27] = tested on: HS 578T breast
[28] = tested on: MDA-MB-435
[29] = tested on: SK-MEL-28 melanoma
[30] = tested on: NCI-H226 lung
[31] = tested on: ACHN renal
[32] = tested on: HOP-62 NSCLC
[33] = tested on: HOP-92 NSCLC
[34] = tested on: CCRF-CEM leukemia
[35] = tested on: COLO 205 colon
[36] = tested on: NCI-H23 lung
[37] = tested on: SF-539 CNS
[38] = tested on: MDA-MB-231 breast
[39] = tested on: KM12 colon
[40] = tested on: IGROV1 ovarian
[41] = tested on: SK-MEL-5 melanoma
[42] = tested on: RXF 393 renal
[43] = tested on: OVCAR-4 ovarian
[44] = tested on: NCI/ADR-RES ovarian
[45] = tested on: MCF7 breast
[46] = tested on: SF-295 CNS
[47] = tested on: SK-MEL-2 melanoma
[48] = tested on: HCC-2998 colon
[49] = tested on: PC-3 prostate
[50] = tested on: MOLT-4 leukemia
[51] = tested on: UO-31 renal
[52] = tested on: EKVX NSCLC
[53] = tested on: DU-145 prostate
[54] = tested on: SK-OV-3 ovarian
[55] = tested on: UACC-257 melanoma
[56] = tested on: OVCAR-3 ovarian
[57] = tested on: T-47D breast

`CC(C)C[C@H](NC(=O)[C@H](Cc1ccccc1)NC(=O)c1cnccn1)B(O)O` was tested, and the GI50 [1] was 1.16 nM, the TGI [1] was < 45.4 nM and 19.4 nM and the GI50 [2] was 0.833 nM. For the same compound, the TGI [2] was < 10 nM and 3.52 nM, the GI50 [3] was 17.5 nM and 4.27 nM and the GI50 [4] was 2.32 nM. For the same compound, the TGI [4] was 26.6 nM and 6.98 nM, the GI50 [5] was 2.19 nM and the GI50 [6] was < 11.4 nM and 1.94 nM. For the same compound, the GI50 [7] was 1.66 nM, the GI50 [8] was 18.3 nM and 4.68 nM and the TGI [8] was 121 nM and 39.7 nM and 150 nM. The GI50 [9] was 0.85 nM, the GI50 [10] was 1.08 nM and the TGI [10] was < 16.1 nM and 3.28 nM. The GI50 [11] was 2.88 nM, the GI50 [12] was 2.96 nM and the GI50 [13] was 1.48 nM. For the same compound, the GI50 [14] was 1.35 nM, the TGI [14] was < 12.9 nM and 4.13 nM and the GI50 [15] was 3.22 nM. The TGI [15] was < 18.4 nM and 32.1 nM, the GI50 [16] was 2.37 nM and the GI50 [17] was 1.03 nM. For the same compound, the TGI [17] was < 13.9 nM and 3.41 nM, the GI50 [18] was 2.6 nM and the TGI [18] was 66.7 nM and 31.2 nM and < 49.9 nM. It also gave a GI50 [19] of 3.98 nM, a TGI [19] greater than 100000 nM and a GI50 [20] of 2.45 nM. The TGI [20] was 381 nM and 96.7 nM and 411 nM, the GI50 [21] was < 11.2 nM and 3.62 nM and the TGI [21] was 5020 nM and 615 nM. For the same compound, the GI50 [22] was 1.49 nM, the TGI [22] was < 16.8 nM and 4.98 nM and the GI50 [23] was 2.56 nM. For the same compound, the GI50 [24] was 1.43 nM, the TGI [24] was < 215 nM and 4.14 nM and the GI50 [25] was 1.64 nM. The TGI [25] was < 69.3 nM and 12.9 nM, the GI50 [26] was 1.21 nM and the GI50 [27] was < 10 nM and 1.92 nM. For the same compound, the GI50 [28] was 0.748 nM, the TGI [28] was < 10 nM and 1.86 nM and the GI50 [29] was 1.04 nM. For the same compound, the GI50 [30] was < 10 nM and 0.89 nM, the TGI [30] was < 10 nM and 2.06 nM and the GI50 [31] was 1.81 nM. For the same compound, the GI50 [32] was < 13.1 nM and 3.17 nM, the GI50 [33] was 1.5 nM and the TGI [33] was 19.6 nM and 7.23 nM. The GI50 [34] was < 10 nM and 1.04 nM, the GI50 [35] was 2.84 nM and the TGI [35] was 1310 nM and 217 nM. The GI50 [36] was 1.75 nM, the TGI [36] was 183 nM and 19.7 nM and the GI50 [37] was 1.19 nM. The TGI [37] was < 10 nM and 2.71 nM, the GI50 [38] was < 11.8 nM and 1.77 nM and the TGI [38] was 5.41 nM. The GI50 [39] was 2.29 nM, the TGI [39] was 36.7 nM and 8.12 nM and the GI50 [40] was 13 nM and 3.85 nM. For the same compound, the TGI [40] was 137 nM and 102 nM and 150 nM, the GI50 [41] was < 10 nM and 1.4 nM and the TGI [41] was 14 nM and 4.11 nM. The GI50 [42] was 1.19 nM, the TGI [42] was < 10 nM and 2.55 nM and the GI50 [43] was < 11.3 nM and 3.15 nM. The TGI [43] was 179 nM, the GI50 [44] was 61.3 nM and the GI50 [45] was 1.3 nM. The GI50 [46] was 2.15 nM, the GI50 [47] was 1.72 nM and the TGI [47] was < 22.3 nM and 10.1 nM. For the same compound, the GI50 [48] was 0.597 nM, the GI50 [49] was 12.5 nM and 3.64 nM and the TGI [49] was 197 nM and 95.2 nM and 106 nM. The GI50 [50] was 1.43 nM, the GI50 [51] was 1.93 nM and the TGI [51] was 22.8 nM and 17.9 nM. The GI50 [52] was < 17.5 nM and 4.19 nM, the TGI [52] was 2060 nM and 417 nM and 2330 nM and the GI50 [53] was 3.11 nM. The GI50 [54] was 18.7 nM and 8.5 nM, the GI50 [55] was 1.07 nM and the TGI [55] was 3.49 nM. The GI50 [56] was 1.04 nM, the TGI [56] was < 12.4 nM and 2.38 nM and the GI50 [57] was 1.67 nM. For the same compound, the TGI [57] was < 10 nM and 4.11 nM.
